As usually defined, the GI50 is the concentration at which growth is held to half of that of the control.

Common to all, as to assay type: cell-based
The test system of one experiment is A431. Nature of the experiment: Cell growth inhibition assay (CellTiter-Glo), A431. The settings on record: Homo sapiens, A-431, 72 h, Table 8; A431 cells, three days; read-out: A431 GI50. The gist of the method:
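This growth inhibition assay reports GI50, the compound concentration producing 50% inhibition of cell growth relative to DMSO. Seeded cells (90 μL medium per well, 96-well Corning 3610 plates, overnight at 37° C.) received 10 μL of compound diluted 1:100 from a 1,000× DMSO stock. Luminescence was measured on Envision (PerkinElmer) and analyzed in GraphPad Prism 9.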
A general note: ATP-based viability assays read luminescence as a measure of living cells.

For a further experiment, the system named is NCI-H2073. Nature of the experiment: Cell growth inhibition assay (CellTiter-Glo), NCI-H2073. The note with it: 72 h; Table 8; NCI-H2073 cells, three days. Here is the method:
Cells were seeded in a 96-well plate (Corning 3610) with 90 μL of culture medium per well, and plates were incubated at 37° C. overnight. A 1,000× DMSO stock solution of the desired compound was prepared the following day. A compound dilution plate was prepared by diluting the stock solution 1:100 in the corresponding cell culture medium, 10 μL of the diluted compound solution was added to each 96-well plate well containing the seeded cells. […] The content of the wells was mixed by shaking continuously for 10 min, and luminescence was measured using Envision (PerkinElmer). The data were analyzed with GraphPad Prism 9 (see FIG. 50).
(§1) Table 6, Table 7, and Table 8 list the cell growth inhibition results, where Gls0 represents the compound concentration to cause 50% cell growth inhibition in comparison with DMSO.

The subject of another experiment is HCC827_DTC. The experiment can be described thus: Cell growth inhibition assay (CellTiter-Glo), HCC827_DTC. The note with it: 72 h; Table 8; HCC827 expressing human EGFR Del19/T790M/C797S, endogenous EGFR knockout, three days. Here is the method:
(§2) HCC827_LTC and HCC827_DTC cell lines were generated by first transducing HCC827 cells (ATCC) with lentiviral particles expressing codon-optimized human EGFR L858R/T790M/C797S (LTC) mutant or Del19/T790M/C797S (DTC) mutant, and then selecting under 5 μg/ml puromycin treatment for a week. The endogenous EGFR alleles were subsequently abolished using the Alt-R™ CRISPR-Cas9 technology (Integrated DNA Technologies). Single clones of HCC827_LTC and HCC827_DTC were selected and validated for endogenous EGFR knockout using Sanger sequencing.
(§3) Cells were seeded in a 96-well plate (Corning 3610) with 90 μL of culture medium per well, and plates were incubated at 37° C. overnight. A 1,000× DMSO stock solution of the desired compound was prepared the following day. A compound dilution plate was prepared by diluting the stock solution 1:100 in the corresponding cell culture medium, 10 μL of the diluted compound solution was added to each 96-well plate well containing the seeded cells. Then, the cells were cultured at 37° C. for three days following compound treatment, 100 μL of CellTiter-Glo reagents (Promega G7573) was added to each well of the 96-well plate. The content of the wells was mixed by shaking continuously for 10 min, and luminescence was measured using Envision (PerkinElmer). The data were analyzed with GraphPad Prism 9 (see FIG. 50).
as §1

A further experiment has as its system HCC827. Nature of the experiment: Cell growth inhibition assay (CellTiter-Glo), HCC827. The settings on record: Homo sapiens, 72 h, Table 8, HCC827 cells, three days. Here is the method:
as §2, §3, §1

Another experiment concerns HCC827_LTC. Nature of the experiment: Cell growth inhibition assay (CellTiter-Glo), HCC827_LTC. The settings on record: 72 h; Table 8; HCC827 expressing human EGFR L858R/T790M/C797S, endogenous EGFR knockout, three days. The method, then:
as §2, §3, §1

For the compound `COc1cc(N2CCC(CN3CCN(c4ccc5c(c4)C(=O)N(C4CCC(=O)NC4=O)C5=O)CC3)CC2)c(-c2cnn(C)c2)cc1Nc1ncc(Br)c(Nc2ccc3nccnc3c2NS(C)(=O)=O)n1` (stereo not drawn) [Compound 83, N-(6-((5-bromo-2-((4-(4-((4-(2-(2,6-dioxopiperidin-3-yl)-1,3-dioxoisoindolin-5-yl)piperazin-1-yl)methyl)piperidin-1-yl)-2-methoxy-5-(1-methyl-1H-pyrazol-4-yl)phenyl)amino)pyrimidin-4-yl)amino)quinoxalin-5-yl)methanesulfonamide], the GI50 is above 3000 nM in the experiment on A431; above 3000 nM in the experiment with NCI-H2073; 19.4 nM in the experiment with HCC827_DTC; 5.51 nM in the experiment with HCC827; 8.58 nM in the experiment with HCC827_LTC.
For the compound `COc1cc(N2CCC(N3CCN(c4ccc5c(c4)C(=O)N(C4CCC(=O)NC4=O)C5=O)CC3)CC2)c(-c2cnn(C)c2)cc1Nc1ncc(Br)c(Nc2ccc3nccnc3c2NS(C)(=O)=O)n1` (stereo not drawn) [Compound 82, N-(6-((5-bromo-2-((4-(4-(4-(2-(2,6-dioxopiperidin-3-yl)-1,3-dioxoisoindolin-5-yl)piperazin-1-yl)piperidin-1-yl)-2-methoxy-5-(1-methyl-1H-pyrazol-4-yl)phenyl)amino)pyrimidin-4-yl)amino)quinoxalin-5-yl)methanesulfonamide], the GI50 is above 3000 nM with A431; above 3000 nM in the experiment with NCI-H2073; 30.8 nM in the experiment on HCC827_DTC; 2.82 nM with HCC827; 9.38 nM in the experiment with HCC827_LTC.
Turning to `COc1cc(N2CCC(N3CCN(CCc4ccc(NC5CCC(=O)NC5=O)cc4)CC3)CC2)c(-c2cnn(C)c2)cc1Nc1ncc(Br)c(Nc2ccc3nccnc3c2NS(C)(=O)=O)n1` (stereo not drawn) [Compound 78, N-(6-((5-bromo-2-((4-(4-(4-(4-((2,6-dioxopiperidin-3-yl)amino)phenethyl)piperazin-1-yl)piperidin-1-yl)-2-methoxy-5-(1-methyl-1H-pyrazol-4-yl)phenyl)amino)pyrimidin-4-yl)amino)quinoxalin-5-yl)methanesulfonamide], the GI50 was determined as 436 nM with A431; 403 nM in the experiment with NCI-H2073; 1.96 nM with HCC827_DTC; 1 nM with HCC827; 1.81 nM with HCC827_LTC.
In the case of `COc1cc(N2CCC(N3CCN(CCc4cc(F)c(C5CCC(=O)NC5=O)c(F)c4)CC3)CC2)c(-c2cnn(C)c2)cc1Nc1ncc(Br)c(Nc2ccc3nccnc3c2NS(C)(=O)=O)n1` (stereo not drawn) [Compound 70, N-(6-((5-bromo-2-((4-(4-(4-(4-(2,6-dioxopiperidin-3-yl)-3,5-difluorophenethyl)piperazin-1-yl)piperidin-1-yl)-2-methoxy-5-(1-methyl-1H-pyrazol-4-yl)phenyl)amino)pyrimidin-4-yl)amino)quinoxalin-5-yl)methanesulfonamide], the GI50 worked out at 160 nM in the experiment on A431; 134 nM with NCI-H2073; 1.53 nM with HCC827_DTC; 0.96 nM in the experiment with HCC827; 0.45 nM in the experiment on HCC827_LTC.
The matching figures for `COc1cc(N2CCC(N3CCN(CC4CCN(c5ccc6c(c5)C(=O)N(C5CCC(=O)NC5=O)C6=O)CC4)CC3)CC2)c(-c2cnn(C)c2)cc1Nc1ncc(Br)c(Nc2ccc3nccnc3c2NS(C)(=O)=O)n1` (stereo not drawn) [Compound 85, N-(6-((5-bromo-2-((4-(4-(4-((1-(2-(2,6-dioxopiperidin-3-yl)-1,3-dioxoisoindolin-5-yl)piperidin-4-yl)methyl)piperazin-1-yl)piperidin-1-yl)-2-methoxy-5-(1-methyl-1H-pyrazol-4-yl)phenyl)amino)pyrimidin-4-yl)amino)quinoxalin-5-yl)methanesulfonamide]: above 3000 nM, above 3000 nM, 7.7 nM, 2.72 nM and 3.57 nM.
Consider `COc1cc(N2CCN(C(=O)CN3CCC(c4ccc(NC5CCC(=O)NC5=O)cc4)CC3)CC2)c(-c2cnn(C)c2)cc1Nc1ncc(Br)c(Nc2ccc3nccnc3c2NS(C)(=O)=O)n1` (stereo not drawn) [Compound 79, N-(6-((5-bromo-2-((4-(4-(2-(4-(4-((2,6-dioxopiperidin-3-yl)amino)phenyl)piperidin-1-yl)acetyl)piperazin-1-yl)-2-methoxy-5-(1-methyl-1H-pyrazol-4-yl)phenyl)amino)pyrimidin-4-yl)amino)quinoxalin-5-yl)methanesulfonamide], for which the GI50 in the experiment with A431 was 164 nM; in the experiment on NCI-H2073, 654 nM; in the experiment on HCC827_DTC, 2.6 nM; in the experiment with HCC827, 0.22 nM; in the experiment on HCC827_LTC, 0.77 nM.
Regarding `COc1cc(N2CCN(C(=O)CN3CCN(c4ccc(NC5CCC(=O)NC5=O)cc4)CC3)CC2)c(-c2cnn(C)c2)cc1Nc1ncc(Br)c(Nc2ccc3nccnc3c2NS(C)(=O)=O)n1` (stereo not drawn) [Compound 80, N-(6-((5-bromo-2-((4-(4-(2-(4-(4-((2,6-dioxopiperidin-3-yl)amino)phenyl)piperazin-1-yl)acetyl)piperazin-1-yl)-2-methoxy-5-(1-methyl-1H-pyrazol-4-yl)phenyl)amino)pyrimidin-4-yl)amino)quinoxalin-5-yl)methanesulfonamide], the GI50 with A431 turned out to be 389 nM; with NCI-H2073, 721 nM; with HCC827_DTC it was 79.4 nM; in the experiment with HCC827, 6.81 nM; with HCC827_LTC, 11 nM.
For the compound `COc1cc(N2CCN(CC3CCN(c4ccc5c(c4)C(=O)N(C4CCC(=O)NC4=O)C5=O)CC3)CC2)c(-c2cnn(C)c2)cc1Nc1ncc(Br)c(Nc2ccc3nccnc3c2NS(C)(=O)=O)n1` (stereo not drawn) [Compound 84, N-(6-((5-bromo-2-((4-(4-((1-(2-(2,6-dioxopiperidin-3-yl)-1,3-dioxoisoindolin-5-yl)piperidin-4-yl)methyl)piperazin-1-yl)-2-methoxy-5-(1-methyl-1H-pyrazol-4-yl)phenyl)amino)pyrimidin-4-yl)amino)quinoxalin-5-yl)methanesulfonamide], the GI50 in the experiment with A431 is above 3000 nM; in the experiment with NCI-H2073 it was above 3000 nM; in the experiment on HCC827_DTC, 10.7 nM; in the experiment on HCC827, 1.18 nM; in the experiment with HCC827_LTC, 3.06 nM.
On to `COc1cc(N2CCC(N3CC4(CN(C(=O)CC5(O)CCN(c6ccc(NC7CCC(=O)NC7=O)cc6F)CC5)C4)C3)CC2)c(-c2cnn(C)c2)cc1Nc1ncc(Br)c(Nc2ccc3nccnc3c2NS(C)(=O)=O)n1` (stereo not drawn) [Compound 81, N-(6-((5-bromo-2-((4-(4-(6-(2-(1-(4-((2,6-dioxopiperidin-3-yl)amino)-2-fluorophenyl)-4-hydroxypiperidin-4-yl)acetyl)-2,6-diazaspiro[3.3]heptan-2-yl)piperidin-1-yl)-2-methoxy-5-(1-methyl-1H-pyrazol-4-yl)phenyl)amino)pyrimidin-4-yl)amino)quinoxalin-5-yl)methanesulfonamide], for which the GI50 with A431 is 746 nM; with NCI-H2073 it was above 3000 nM; in the experiment on HCC827_DTC, 4.21 nM; with HCC827 it was 2.41 nM; with HCC827_LTC, 2.03 nM.

These data come from patent US20250002473A1, “QUINOXALINE DERIVED SULFONAMIDES WITH EGFR DEGRADATION ACTIVITIES AND THEIR USES THEREOF” (Accutar Biotechnology Inc., priority 2023, published 2025).
